Assay [1] has as its target T1, Serine/threonine-protein kinase mTOR (Homo sapiens, UniProt P42345).
Assay [2] has as its target T1, Serine/threonine-protein kinase mTOR. This is another data set of the same source.
The target is the same in assay [3]. The source holds these as a separate data set.
Description: Inhibition of mTOR in human U-87 cells assessed as inhibition of phosphorylation of AKT at S473
Assay [4] deals with Phosphatidylinositol 4,5-bisphosphate 3-kinase catalytic subunit alpha isoform (Homo sapiens, UniProt P42336).

Data on 15 compounds can be found in ChEMBL document CHEMBL1759974, “Discovery of triazine-benzimidazoles as selective inhibitors of mTOR” (Bioorg Med Chem Lett, 2011).

Sequence of Phosphatidylinositol 4,5-bisphosphate 3-kinase catalytic subunit alpha isoform (P42336 whole entry, canonical isoform): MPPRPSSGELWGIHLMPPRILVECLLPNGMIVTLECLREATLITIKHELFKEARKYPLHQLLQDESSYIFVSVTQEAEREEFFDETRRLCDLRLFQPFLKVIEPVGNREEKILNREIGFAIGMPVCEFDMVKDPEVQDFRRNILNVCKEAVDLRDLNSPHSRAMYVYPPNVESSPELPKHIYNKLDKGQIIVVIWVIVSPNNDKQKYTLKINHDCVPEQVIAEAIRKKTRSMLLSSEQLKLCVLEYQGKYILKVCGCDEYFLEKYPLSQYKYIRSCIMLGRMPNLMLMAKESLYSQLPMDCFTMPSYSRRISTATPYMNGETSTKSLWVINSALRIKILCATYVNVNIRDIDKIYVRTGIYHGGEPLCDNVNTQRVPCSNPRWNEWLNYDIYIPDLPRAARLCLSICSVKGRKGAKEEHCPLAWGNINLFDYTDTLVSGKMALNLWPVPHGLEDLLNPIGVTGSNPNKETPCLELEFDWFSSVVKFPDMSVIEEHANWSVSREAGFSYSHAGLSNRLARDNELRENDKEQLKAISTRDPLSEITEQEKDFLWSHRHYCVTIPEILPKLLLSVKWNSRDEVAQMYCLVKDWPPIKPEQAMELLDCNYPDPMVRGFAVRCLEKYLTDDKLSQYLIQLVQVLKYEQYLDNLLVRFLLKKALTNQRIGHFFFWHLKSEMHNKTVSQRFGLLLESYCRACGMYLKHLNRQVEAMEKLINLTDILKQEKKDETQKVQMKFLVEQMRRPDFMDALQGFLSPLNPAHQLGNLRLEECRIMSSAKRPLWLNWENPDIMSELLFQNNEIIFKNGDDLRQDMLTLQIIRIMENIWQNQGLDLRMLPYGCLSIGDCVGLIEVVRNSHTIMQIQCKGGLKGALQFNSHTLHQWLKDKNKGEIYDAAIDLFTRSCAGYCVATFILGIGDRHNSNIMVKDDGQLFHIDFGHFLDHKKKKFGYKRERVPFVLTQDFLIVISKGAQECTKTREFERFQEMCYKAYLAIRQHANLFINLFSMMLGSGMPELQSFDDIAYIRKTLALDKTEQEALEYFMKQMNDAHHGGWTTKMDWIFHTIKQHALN

What is called IC50 is the concentration at which inhibition is half-maximal. For `Oc1cccc(Nc2nc3ccccc3n2-c2ncnc(Nc3ccccc3)n2)c1`, the half-maximal inhibitory concentration (IC50) is 2300 nM in assay [1], greater than 25 µM in assay [2], 870 nM in assay [3] and 720 nM in assay [4].
Take `Cc1nccc(-n2c(Nc3cccc(O)c3)nc3ccccc32)n1`: the half-maximal inhibitory concentration (IC50) worked out at 370 nM in assay [1], 8.9 µM in assay [2], 600 nM in assay [3] and 370 nM in assay [4].
For the compound `Oc1cccc(Nc2nc3ccccc3n2-c2ncnc(NCc3ccccn3)n2)c1`, the half-inhibitory concentration (IC50) in assay [1] was 21000 nM; in assay [2], greater than 25 µM; in assay [3], 2400 nM; in assay [4] it was 3600 nM.
For `Nc1ncnc(-n2c(Nc3cccc(O)c3)nc3ccccc32)n1`, the IC50 in assay [1] is 21 nM; in assay [2], 0.71 µM; in assay [3], 34 nM; in assay [4], 130 nM.
Take `COc1nc(NCC#N)nc(-n2c(Nc3cccc(O)c3)nc3ccccc32)n1`: the IC50 in assay [1] was greater than 50000 nM; in assay [2], 21.5 µM; in assay [3] it was 2100 nM; in assay [4] it was 520 nM.
The matching figures for `COc1ncnc(-n2c(Nc3cccc(O)c3)nc3ccccc32)n1`: greater than 50000 nM, greater than 25 µM, 1900 nM and 1700 nM.
On to `Cc1nc(N)cc(-n2c(Nc3cccc(O)c3)nc3ccccc32)n1`, for which the half-maximal inhibitory concentration (IC50) in assay [1] was 87 nM; in assay [2] it was 1.2 µM; in assay [3], 43 nM; in assay [4], 42 nM.
The matching figures for `Oc1cccc(Nc2nc3ccccc3n2-c2ncnc(NCC(F)(F)F)n2)c1`: greater than 50000 nM, greater than 25 µM, 3200 nM and 3600 nM.
Turning to `Oc1cccc(Nc2nc3ccccc3n2-c2ncncn2)c1`, the IC50 is 3000 nM in assay [1], greater than 25 µM in assay [2], 1600 nM in assay [3] and 2000 nM in assay [4].
Regarding `Cc1nc(NCC#N)nc(-n2c(Nc3cccc(O)c3)nc3ccccc32)n1`, the half-maximal inhibitory concentration (IC50) in assay [1] turned out to be 8 nM; in assay [2], 0.38 µM; in assay [3] it was 17 nM; in assay [4], 32 nM.
Take `Cc1nc(N)nc(-n2c(Nc3nc[nH]n3)nc3ccccc32)n1`: the concentration for half-maximal inhibition (IC50) in assay [1] was 33100 nM; in assay [2] it was greater than 25 µM; in assay [3], 4600 nM.
Regarding `Nc1cc(-n2c(Nc3cccc(O)c3)nc3ccccc32)ncn1`, the IC50 is 110 nM in assay [1], 3.5 µM in assay [2], 420 nM in assay [3] and 1000 nM in assay [4].
Turning to `CNc1ncnc(-n2c(Nc3cccc(O)c3)nc3ccccc32)n1`, the 50% inhibitory concentration (IC50) was 250 nM in assay [1], 2.9 µM in assay [2], 180 nM in assay [3] and 190 nM in assay [4].
Consider `CCc1nc(N)nc(-n2c(Nc3cccc(O)c3)nc3ccccc32)n1`, for which the IC50 in assay [1] was found to be 390 nM; in assay [2], 6.3 µM; in assay [3] it was 410 nM; in assay [4], 340 nM.
For `CCCc1nc(N)nc(-n2c(Nc3cccc(O)c3)nc3ccccc32)n1` the same measures were 4700 nM, greater than 25 µM, 2640 nM and 3500 nM.
